In assay [1] the target is T1, FLAG-tagged PRMT1 (Rattus norvegicus, UniProt Q63009).
T1 construct: Full-length FLAG-tagged PRMT protein; made in house; host or cells: Sf9 insect cells (baculovirus)
Nature of the assay: Liquid in vitro methyltransferase assay, scintillation counting (GST-GAR). It is filed as biochemical. The following applies: 200 μM compound, except TR-033 100 μM; vs DMSO control. The procedure:
(§1) As negative control (Ctrl (−)), PRMT1 enzymes and [^14C-methyl]-SAM were incubated without substrates. Subsequently, samples were separated by SDS-PAGE, blotted, and analyzed by autoradiography. Substrates (H2A, H4 or GST-GAR) and molecular weights (kDa) of the protein marker are indicated. Black lines designate composite images, assembled from the same blots and exposure times. The methylation signals of the substrates were densitometrically quantified, and expressed relative to the DMSO-treated control, as indicated by the numbers below the autoradiographs. Representative results are depicted, with quantification graphs (below the autoradiographs in A and B) summarizing biological replicates. […] Subsequently, GST-GAR was immobilized on glutathione-beads and PRMT1 activity was measured by quantifying the incorporation of ^14C-methyl groups (in cpm) using liquid scintillation counting. […] Cell viability was quantified using the CellTiter-Glo assay. Viability of compound-treated cells is shown in % relative to the viability of solvent-treated cells, which was set to 100% (mean ± SD, n = 3), and then plotted against the logarithm of the compound concentrations. Concentration-viability curves were fitted by nonlinear regression, with the half-maximal inhibitory concentration (IC50) of the compounds for PANC-1 cell viability and the coefficient of determination (R^2) indicated. […] Subsequently, whole-cell extracts were prepared and analyzed by Western blot using antibodies against ADMA, ACTIN (ACT), and VINCULIN (VINC), of which the latter two stainings served as loading controls. Molecular weights (kDa) of the protein marker are indicated. All the ADMA signals per lane were densitometrically quantified, normalized to the signal of the respective loading control and expressed relative to the DMSO-treated control, as indicated by the numbers below the immunostainings.
For the liquid methyltransferase assays, the reaction mixtures, containing 1–2 μg eluted FLAG-tagged PRMT1 and as the substrate 1–2 μg eluted GST-GAR protein at a total volume of 20 μL in PBS, were preincubated in the absence (DMSO) or presence of compounds at room temperature and under agitation (800 rpm) for 30 min. […] After washing, 1 mL scintillation liquid (Rotiszint ecoplus, Roth) was added to the bead-bound GST-GAR and incorporated ^14C-methyl groups were quantified using a scintillation counter (LS6500, Beckman Coulter). Background signal was determined using 1 mL of scintillation fluid alone and was subtracted from the measured counts of the enzymatic reactions. Compound-treated PRMT1 activity was expressed as background-corrected counts (in cpm) normalized to the DMSO control.

Assay [2] deals with ADMA in PANC-1 cells. Nature of the assay: Western blot of global ADMA levels in PANC-1 cells. In kind it is cell-based, human. The following applies: PANC-1, 72 h, 10 and 20 μM (TR-033 2.5 and 5 μM), vs DMSO. The procedure: as §1, with “assay.” for “assay. Viability of compound-treated cells is shown in % relative to the viability of solvent-treated cells, which was set to 100% (mean ± SD, n = 3), and then plotted against the logarithm of the compound concentrations. Concentration-viability curves were fitted by nonlinear regression, with the half-maximal inhibitory concentration (IC50) of the compounds for PANC-1 cell viability and the coefficient of determination (R^2) indicated.”, “Molecular weights (kDa) of the protein marker are indicated.” left out, “immunostainings. […]” for “immunostainings.”

T1 sequence (Q63009 whole entry): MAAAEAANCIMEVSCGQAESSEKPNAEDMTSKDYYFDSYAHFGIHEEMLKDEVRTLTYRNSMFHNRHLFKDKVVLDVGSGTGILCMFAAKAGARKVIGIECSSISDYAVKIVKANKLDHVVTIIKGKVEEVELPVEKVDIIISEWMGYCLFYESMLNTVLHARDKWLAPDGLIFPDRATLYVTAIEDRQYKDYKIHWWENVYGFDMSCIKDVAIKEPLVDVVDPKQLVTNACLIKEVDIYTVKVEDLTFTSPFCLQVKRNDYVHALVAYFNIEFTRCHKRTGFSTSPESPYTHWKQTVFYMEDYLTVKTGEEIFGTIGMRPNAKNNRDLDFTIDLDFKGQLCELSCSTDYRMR

For the compound `CCN(CC)Cc1cccc(N/C=C2\C(=O)NC(=O)c3ccccc32)c1.Cl` [TR-036, (Z )-N-(3-{[(1,3-Dioxo-2,3-dihydroisoquinoline-4(1 H )-ylidene)methyl]amino}benzyl)-N -ethylethanaminium chloride], in assay [1], the “PRMT1 methylation activity toward GST-GAR, liquid scintillation counting” value is given as “increased”.
With `CN(C)Cc1cccc(-c2ccc3[nH]c(=O)c4ccccc4c3c2)c1` [TR-033, 2-{3-[(Dimethylamino)methyl]phenyl}phenanthridin-6(5H)-One], the “PRMT1 methylation activity toward GST-GAR, liquid scintillation counting” value in assay [1] is listed as “increased”. In addition, the “global arginine methylation (ADMA) in cells” value in assay [2] is on record as “did not produce consistent effects”.
The like results for `CN(C)Cc1cccc(CN/C=C2\C(=O)NC(=O)c3ccccc32)c1.Cl` [TR-07, (Z)-1-[3-({[(1,3-Dioxo-2,3-dihydroisoquinolin-4(1H)-lidene)methyl]amino}methyl)phenyl]-N,N-dimethylmethanaminium chloride] were, in that order, “increased” and “concentration-dependent increase in global arginine methylation”.
As for “(Z)-2-(2-{[(1,3-Dioxo-2,3-dihydroisoquinolin-4(1H)-ylidene)methyl]amino}phenyl)-N,N-dimethylethan-1-aminium chloride [ICTR-059]”, the “PRMT1 methylation activity toward GST-GAR, liquid scintillation counting” value in assay [1] is “increased”.

The values above are taken from article PMC13576449, “Small-Molecule Activators of PRMT1: Discovery, SAR Analyses, and Proapoptotic Effects in Pancreatic Cancer Cells” (Journal of Medicinal Chemistry, 2026).
